Results on one compound are retold here after article PMC7785057 (ACS catalysis, 2020).

For this assay, the target named is NmSiaDW (Neisseria meningitidis, UniProt O33390). As to the kind of experiment: sialyltransferase kinetics, varied acceptor. The settings on record: α2–6-sialyltransferase activity, fixed concentration of CMP-Neu5Ac. In kind it is biochemical.

The term Km denotes the substrate concentration at which the rate is half of its maximum. As to `CC(=O)N[C@H]1[C@H]([C@H](O)[C@H](O)CO)O[C@@](OC[C@H]2O[C@H](O[C@H]3C[C@](OCCCNC(=O)OCc4ccccc4)(C(=O)O)O[C@@H]([C@H](O)[C@H](O)CO)[C@@H]3NC(C)=O)[C@H](O)[C@@H](O)[C@H]2O)(C(=O)O)C[C@@H]1O[C@H]1O[C@H](CO)[C@H](O)[C@H](O)[C@H]1O` [G4], the Km came out at 240 ± 40 µM.
